Consider 3 molecules from ChEMBL document CHEMBL1201862, “PubChem BioAssay data set” (2004).

Each structure is given as a SMILES string.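 All cell lines were grown in 96-well plates and treated with compound for 48 hours. GI50 is the concentration that inhibits growth by half.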 Activity calls are given as the source filed them. Rule as the data show it: active = GI50 up to about 1.1 µM and inactive = higher. Some results are limits rather than exact numbers.

Holding throughout (experiment): growth of human tumour cells (NCI), 48 h
For assay [1], the system named is SK-MEL-5.
Assay [2] relates to MDA-MB-435.
Assay [3] concerns T47D.
The test system of assay [4] is MOLT-4.
The subject of assay [5] is CCRF-CEM.
Assay [6] relates to K562.
Assay [7] concerns SNB-75.
Assay [8] relates to BT-549.
Assay [9] deals with NCI-H23.
The subject of assay [10] is SK-OV-3.
Assay [11] deals with RPMI-8226.
The subject of assay [12] is NCI-H522.
Assay [13] deals with HCT-116.
The test system of assay [14] is HCT-15.
The subject of assay [15] is SF-295.
The test system of assay [16] is ACHN.
For assay [17], the system named is PC-3.
For assay [18], the system named is COLO 205.
Assay [19] concerns EKVX.
Assay [20] relates to MCF7.

Take `CC(C(=O)c1ccccc1)C(c1ccccc1)N1CCOCC1` (stereo not given): the GI50 in assay [1] was > 100 µM (inactive); in [2], > 100 µM (inactive); in assay [3], > 100 µM (inactive); in assay [4], 66.8 µM (inactive); in [5] it was 36.1 µM (inactive); in assay [6] it was > 100 µM (inactive). Further, the GI50 is > 100 µM (inactive) in assay [7]; > 100 µM (inactive) in assay [8]; > 100 µM (inactive) in assay [9]; > 100 µM (inactive) in assay [10]; 54.3 µM (inactive) in assay [11]; > 100 µM (inactive) in assay [12]. The GI50 in assay [13] was > 100 µM (inactive); in assay [14] it was over 100 µM; in assay [15], > 100 µM (inactive); in assay [16], > 100 µM (inactive); in [17] it was > 100 µM (inactive); in [18] it was > 100 µM (inactive). The GI50 in assay [19] and in assay [20] was > 100 µM (inactive) throughout.

As to `O=c1c2cc(S(=O)(=O)O)ccc2nc(COc2ccc(Oc3ccc(Cl)cc3Cl)cc2)n1-c1ccc(Oc2ccc(Cl)cc2)cc1Cl`, the GI50 in assay [1] was 18.6 µM (inactive); in [2] it was 19.7 µM (inactive); in [3] it was 33.1 µM (inactive); in assay [4] it was 10.4 µM (inactive); in [5], 27.7 µM (inactive); in assay [6], 28.2 µM (inactive). Also, the GI50 in assay [7] was 22.6 µM (inactive); in assay [8], 17.1 µM (inactive); in assay [9] it was 21.7 µM (inactive); in assay [10] it was 22.6 µM (inactive); in assay [11], 21.1 µM (inactive); in assay [12], 20.4 µM (inactive). Moreover, the GI50 was 20.8 µM (inactive) in assay [13]; 19.9 µM in assay [14]; 18.3 µM (inactive) in [15]; 24.5 µM (inactive) in assay [16]; 26.7 µM (inactive) in assay [17]; 17.9 µM (inactive) in assay [18]. For the same molecule, the GI50 in assay [19] is 17.6 µM (inactive); in assay [20], 20.7 µM (inactive).

Regarding `C[C@@H]1C[C@H]2OC(=O)[C@@]3(C)CCC[C@@](C)([C@@H]23)[C@@]1(O)CCc1ccoc1`, the GI50 in assay [1] was 40.6 µM (inactive); in assay [2] it was > 100 µM (inactive); in assay [3] it was > 100 µM (inactive); in [4], 38 µM (inactive); in assay [5], 74.5 µM (inactive); in assay [6], 42.2 µM (inactive). In addition, the GI50 is > 100 µM (inactive) in [7]; > 49.8 µM (inactive) in assay [8]; > 77.8 µM (inactive) in assay [9]; > 100 µM (inactive) in [10]; 45.1 µM (inactive) in [11]; > 61.8 µM (inactive) in [12]. Besides, the GI50 in [13] is > 87.7 µM (inactive); in [14] it was 79.3 µM; in assay [15], > 100 µM (inactive); in assay [16], > 100 µM (inactive); in assay [17] it was > 100 µM (inactive); in assay [18] it was > 100 µM (inactive). The GI50 in assay [19] is > 100 µM (inactive); in [20], > 80.2 µM (inactive).
